Source: patent US20210315893A1 (Galapagos NV, priority 2017, published 2021)

How the values were obtained:
[1] = target: T1, human GPCR sphingosine 1-phosphate receptor 2 (Homo sapiens, UniProt O95136); experiment: S1PR2 antagonist Ca2+ flux assay; assay type: cell-based; details: antagonist mode, CHO-S1PR2 cells, S1P at EC80, Ca2+ fluorescence; read-out: S1P2 EC50 (nM), S1P2 antagonist EC50
T1 construct: host or cells: CHO
Outline: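 CHO cells stably expressing human S1PR2, serum-starved 1 h, Fluo8-loaded; compound-evoked Ca2+ fluorescence read 3 min (agonist mode), then after 15 min S1P at EC80 added and read 3 min (antagonist mode). Max/baseline fluorescence ratios normalised to vehicle and S1P EC100 or EC50 controls; EC50 derived.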

S1PR2 = target: T2, S1PR2 (Homo sapiens, UniProt O95136); experiment: S1PR2 binding assay (competition with radioactively labeled S1P, SpA); details: membranes from stable cell line over expressing S1PR2, SpA beads; read-out: S1P2 EC50 (nM), S1PR2 binding EC50
T2 construct: expressed in transfected cells
T2 sequence (O95136 whole entry): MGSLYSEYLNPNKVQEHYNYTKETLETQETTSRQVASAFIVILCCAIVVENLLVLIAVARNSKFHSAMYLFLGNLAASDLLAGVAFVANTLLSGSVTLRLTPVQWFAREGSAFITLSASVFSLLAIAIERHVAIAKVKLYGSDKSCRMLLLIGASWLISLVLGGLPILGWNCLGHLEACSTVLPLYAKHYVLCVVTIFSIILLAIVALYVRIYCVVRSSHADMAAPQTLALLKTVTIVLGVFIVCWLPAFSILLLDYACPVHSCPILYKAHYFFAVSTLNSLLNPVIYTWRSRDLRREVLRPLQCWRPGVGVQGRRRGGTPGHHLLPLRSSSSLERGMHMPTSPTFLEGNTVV
Outline: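 Competition with [3H]S1P for membranes from a stable S1PR2-overexpressing cell line, 20 μg/well, captured on PVT-WGA SPA beads, in 20 mM Tris pH 7.5, 10 mM MgCl2, 100 mM NaCl, 0.4% fatty-acid-free BSA, 1 mM Na3VO4. 2 h at room temperature, then centrifugation and scintillation counting.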

HFL-1 cells [2] = experiment: IL-8 production assay (S1P induced IL-8); assay type: cell-based; details: Homo sapiens, HFL1; S1P (1 μM) induced IL-8 in HFL-1 cells, starvation medium without HSA; read-out: IL8 EC50
Experimental: This assay is designed to test inhibitory activity of compounds on S1P induced IL-8 on HFL-1 cells, ahuman fetal lung fibroblast cell line.
Human Fetal Lung cells (HFL-1) are seeded in 96 well plates in growth medium (F12K+10% heat inactivated FBS+l1% Pen/strep). After overnight incubation at 37° C., […] cells are refreshed with starvation medium without HSA (F12K+1% FBS+1% Pen/strep). On day three, compounds are added (10 point serial dilution, 30 μM highest concentration, 1/3 dilution, 0.3% DMSO final) and plates are incubated for one h at 37° C., 5% CO2. Subsequently S1P at 1 μM final concentration is added and plates are incubated for 16 to24 h at 37° C., […] after which the supermatant was collected. IL-8 levels in the supernatant are determined with the IL-8 ELISA of R&D systems.

HFL-1 cells [3] = experiment: IL8 assay in the presence of Human Serum Albumin; details: HFL1, read-out: HSA IL8 EC50

T1 sequence (O95136 whole entry): as above

Structure (SMILES) | EC50 [1] | EC50 (S1PR2) | EC50 (HFL-1 cells [2]) | EC50 (HFL-1 cells [3])
CC1(O)CCN(C(=O)Cn2nc(Cc3cn4cc(OCC5CC5)c(C#N)cc4n3)c3ccccc3c2=O)C1 (stereo not shown) [Compound 210, 6-(cyclopropylmethoxy)-2-[[3-[2-(3-hydroxy-3-methyl-pyrrolidin-1-yl)-2-oxo-ethyl]-4-oxo-phthalazin-1-yl]methyl)imidazo[1,2-a]pyridine-7-carbonitrile] | 102 nM | 233 nM | 356 nM | 188 nM
CC1(COc2cc3nc(Cc4nn(CC(=O)O)c(=O)c5ccccc45)[nH]c3cc2Cl)CC1 [Compound 131, 2-[4-[[5-chloro-6-[(1-methylcyclopropyl)methoxy]-1H-benzimidazol-2-yl]methyl]-1-oxo-phthalazin-2-yl]acetic acid] | 13.2 nM | 197 nM | 12 nM | 267 nM
C[C@@H]1CN(C(=O)Cn2nc(Cc3nc4cc(Cl)c(OCC5(C#N)CC5)cc4[nH]3)c3ccccc3c2=O)C[C@H](C)O1 [Compound 162, 1-[[6-chloro-2-[[3-[2-[(2S,6R)-2,6-dimethylmorpholin-4-yl]-2-oxo-ethyl]-4-oxo-phthalazin-1-yl]methyl]-3H-benzimidazol-5-yl]oxymethyl]cyclopropanecarbonitrile] | 9.07 nM | 75.1 nM | 4.44 nM | 8.27 nM
CC(C#N)CN(C)C(=O)Cn1nc(Cc2nc3cc(C#N)c(OCC(F)F)cc3[nH]2)c2ccccc2c1=O (stereo not shown) [Compound 195, 2-[4-[[5-cyano-6-(2,2-difluoroethoxy)-1H-benzimidazol-2-yl]methyl]-1-oxo-phthalazin-2-yl]-N-(2-cyanopropyl)-N-methyl-acetamide] | 31.9 nM | 197 nM | 27.8 nM | 171 nM
O=C(O)Cc1nn(Cc2cc3cc(Cl)c(OCC4CC4)cc3[nH]2)c2ccccc2c1=O [compound 16, 2-[1-[[5-chloro-6-(cyclopropyl-methoxy)-1H-indol-2-yl]-methyl]-4-oxo-cinnolin-3-yl]-acetic acid] | 4.58 nM | 29.9 nM | 8.49 nM | 51.4 nM
O=C(Cn1nc(Cc2nc3cc(Cl)c(OCC(F)F)cc3[nH]2)c2ccccc2c1=O)N1CCOCC1 [Compound 151, 4-[[5-chloro-6-(2,2-difluoroethoxy)-1H-benzimidazol-2-yl]methyl]-2-(2-morpholino-2-oxo-ethyl)phthalazin-1-one] | 13.6 nM | 34.7 nM | 7.11 nM | 43.7 nM
O=C(Cn1nc(Cc2nc3cc(Cl)c(OCC4CC4)cc3[nH]2)c2ccccc2c1=O)N1CCOCC1 [Compound 166, 4-[[5-chloro-6-(cyclopropylmethoxy)-1H-benzimidazol-2-yl]methyl]-2-(2-morpholino-2-oxo-ethyl)phthalazin-1-one] | 9.34 nM | 22.4 nM | 1.41 nM | 3.3 nM
COc1ccc2c(=O)n(CC(=O)N3CCOCC3)nc(Cc3nc4cc(Cl)c(OCC(F)F)cc4[nH]3)c2c1 [Compound 30, 4-[[5-chloro-6-(2,2-difluoroethoxy)-1H-benzimidazol-2-yl]methyl]-6-methoxy-2-(2-morpholino-2-oxo-ethyl)phthalazin-1-one] | 9.47 nM | 93.3 nM | 13.7 nM | 74.5 nM
N#Cc1cc2[nH]c(Cc3nn(CC(=O)N4CCOCC4)c(=O)c4cccc(C5CC5)c34)nc2cc1OCC(F)F [Compound 54, 2-[[8-cyclopropyl-3-(2-morpholino-2-oxo-ethyl)-4-oxo-phthalazin-1-yl]methyl]-6-(2,2-difluoroethoxy)-3H-benzimidazole-5-carbonitrile] | 23.8 nM | 93.5 nM | 32.2 nM | 41.1 nM
COC1CCN(C(=O)Cn2nc(Cc3nc4cc(C#N)c(OCC(F)F)cc4[nH]3)c3ccccc3c2=O)C1 (stereo not shown) [Compound 186, 6-(2,2-difluoroethoxy)-2-[[3-[2-(3-methoxypyrrolidin-1-yl)-2-oxo-ethyl]-4-oxo-phthalazin-1-yl]methyl]-1H-benzimidazole-5-carbonitrile] | 25 nM | 141 nM | 34.8 nM | 80.9 nM
N#Cc1cc2nc(Cc3nn(CC(=O)NCC4(CO)COC4)c(=O)c4ccccc34)[nH]c2cc1OCC(F)F [Compound 199, 2-[4-[[5-cyano-6-(2,2-difluoroethoxy)-1H-benzimidazol-2-yl)methyl]-1-oxo-phthalazin-2-yl]-N-[[3-(hydroxymethyl)oxetan-3-yl]methyl]acetamide] | 54.6 nM | 173 nM | 80.3 nM | 276 nM
CCOc1cc2[nH]c(Cc3nn(CC(=O)O)c(=O)c4c3CCCC4)nc2cc1Cl [Compound 121, 2-[4-[(5-chloro-6-ethoxy-1H-benzimidazol-2-yl)methyl]-1-oxo-5,6,7,8-tetrahydrophthalazin-2-yl]acetic acid] | 6.23 nM | 84.8 nM | 6.35 nM | 50.8 nM
COCC(O)CNC(=O)Cn1nc(Cc2nc3cc(C#N)c(OCC(F)F)cc3[nH]2)c2ccccc2c1=O (stereo not shown) [Compound 192, 2-[4-[[5-cyano-6-(2,2-difluoroethoxy)-1H-benzimidazol-2-yl]methyl]-1-oxo-phthalazin-2-yl]-N-(2-hydroxy-3-methoxypropyl)acetamide] | 41 nM | 190 nM | 156 nM | 666 nM

Further compounds by falling EC50 [1], results first:

EC50 [1] | EC50 (S1PR2) | EC50 (HFL-1 cells [2]) | EC50 (HFL-1 cells [3]) | Structure (SMILES)
2660 nM | 5330 nM | 823 nM | 779 nM | CN(C)CC(C(=O)O)n1nc(Cc2nc3cc(OCC(F)F)c(C#N)cc3[nH]2)c2ccccc2c1=O (stereo not shown) [Compound 74, 2-[4-[[6-cyano-5-(2,2-difluoroethoxy)-1H-benzimidazol-2-yl]methyl]-1-oxo-phthalazin-2-yl]-3-(dimethylamino)propanoic acid]
1330 nM | 478 nM | 365 nM | 563 nM | N#Cc1cc2nc(Cc3nn(C4CN(CC(=O)O)C4)c(=O)c4ccccc34)cn2cc1OCC1CC1 [Compound 73]
1050 nM | 1310 nM | 685 nM | 2780 nM | CS(=O)(=O)c1ccc2c(=O)n(CC(=O)N3CCOCC3)nc(Cc3nc4cc(Cl)c(OCC(F)F)cc4[nH]3)c2c1 [Compound 41, 4-[[5-chloro-6-(2,2-difluoroethoxy)-1H-benzimidazol-2-yl]methyl]-6-methylsulfonyl-2-(2-morpholino-2-oxo-ethyl)phthalazin-1-one]
148 nM | 343 nM | 1020 nM | 1940 nM | CC(C)(C)NC(=O)Cn1nc(Cc2nc3cc(OCC(F)F)c(C#N)cc3[nH]2)c2c(c1=O)CCCC2 [Compound 203, N-tert-butyl-2-[4-[[6-cyano-5-(2,2-difluoroethoxy)-1H-benzimidazol-2-yl]methyl]-1-oxo-5,6,7,8-tetrahydrophthalazin-2-yl]acetamide]
36.5 nM | 346 nM | 49.7 nM | 183 nM | N#Cc1cc2nc(Cc3nn(CC(=O)N4CCC(O)CC4)c(=O)c4ccccc34)[nH]c2cc1OCC(F)F [Compound 193, 6-(2,2-difluoroethoxy)-2-[[3-[2-(4-hydroxy-1-piperidyl)-2-oxo-ethyl]-4-oxo-phthalazin-1-yl]methyl]-1H-benzimidazole-5-carbonitrile]
26.4 nM | 649 nM | 97.3 nM | 800 nM | CC(C)(C)COc1cc2nc(Cc3nn(CC(=O)O)c(=O)c4ccccc34)[nH]c2cc1Cl [Compound 132]
15 nM | 63.6 nM | 20.1 nM | 38 nM | CC(O)(CNC(=O)Cn1nc(Cc2nc3cc(C#N)c(OCC(F)F)cc3[nH]2)c2ccccc2c1=O)C(F)(F)F (stereo not shown) [Compound 190, 2-[4-[[5-cyano-6-(2,2-difluoroethoxy)-1H-benzimidazol-2-yl]methyl]-1-oxo-phthalazin-2-yl]-N-(3,3,3-trifluoro-2-hydroxy-2-methylpropyl)acetamide]
13.8 nM | 15.2 nM | 21.6 nM | 179 nM | O=C(Cn1nc(Cn2cc3cc(OCC4CC4)c(Cl)cc3n2)c2ccccc2c1=O)N[C@H]1CCC[C@@H]1O [Compound 143, 2-[4-[[6-chloro-5-(cyclopropylmethoxy)indazol-2-yl]methyl]-1-oxo-phthalazin-2-yl]-N-[(1S,2S)-2-hydroxycyclopentyl]acetamide]
3.98 nM | 18.6 nM | 1.5 nM | 11 nM | N#Cc1cc2[nH]c(Cc3nn(CC(=O)N4CCOCC4)c(=O)c4ccccc34)nc2cc1OCC1CC1 [Compound 158, 6-(cyclopropylmethoxy)-2-[[3-(2-morpholino-2-oxo-ethyl)-4-oxo-phthalazin-1-yl]methyl]-3H-benzimidazole-5-carbonitrile]
